Where “and” joins values, the source holds several entries; their conditions need not be identical. Equal entries are not always repeated. Where two headings read alike, the source gives them in different places.
What was measured:
CYP2C19 [1] = target: T1, CYP2C19 (Homo sapiens, UniProt P33261); conditions: for 4′-Hydroxymephenytoin formation Adjusted Individual / 4′-Hydroxymephenytoin formation Adjusted Mean ± SD: 4 h; for Percent of VC / Specific Activity Individual / Specific Activity Mean ± SD: 48 h
T1 sequence (P33261 whole entry): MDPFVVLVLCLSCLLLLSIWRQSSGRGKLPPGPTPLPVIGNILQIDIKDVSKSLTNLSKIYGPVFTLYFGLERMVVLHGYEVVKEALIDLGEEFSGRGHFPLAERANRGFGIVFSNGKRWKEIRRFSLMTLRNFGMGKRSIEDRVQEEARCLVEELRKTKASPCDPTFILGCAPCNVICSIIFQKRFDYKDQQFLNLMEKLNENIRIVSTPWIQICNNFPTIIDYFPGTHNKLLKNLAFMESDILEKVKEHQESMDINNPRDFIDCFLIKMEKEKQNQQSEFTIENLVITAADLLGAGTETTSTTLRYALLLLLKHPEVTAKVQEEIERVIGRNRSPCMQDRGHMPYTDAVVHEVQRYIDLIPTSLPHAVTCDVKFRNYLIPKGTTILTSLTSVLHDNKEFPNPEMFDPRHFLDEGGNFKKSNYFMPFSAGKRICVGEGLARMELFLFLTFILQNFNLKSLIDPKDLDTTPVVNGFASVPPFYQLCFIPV
Excerpt: (§1) Hepatocytes from three human donors were obtained from a cryopreserved hepatocyte bank (In Vitro Technologies, Inc., USA). After thawing, viable hepatocytes were transferred to collagen-coated 48-well plates for attachment in plating medium (DMEM stock (Dulbecco's modified Eagle's medium, supplemented with bovine serum albumin, fructose, N-(2-hydroxyethyl)piperazine-N′-(2-ethanesulfonate) (HEPES), and sodium bicarbonate), supplemented with antibiotics, bovine serum, hydrocortisone, insulin and minimum essential medium (MEM) nonessential amino acids). After attachment to the collagen matrix, plating medium was replaced with sandwich medium (plating medium supplemented with VITROGEN) and incubated until use.
(§2) The supplemented KHB was replaced with 150 μL supplemented KHB containing the appropriate isoform-selective substrate and incubated for 4 hrs prior to termination by adding 150 μL ice-cold methanol, except for the CYP2C8 incubations which were terminated by adding 150 μL acetonitrile.
(§3) All substrates were dissolved in acetonitrile.
(§4) Replicate trials and controls were performed. […] Additionally, reference control samples were included to evaluate inducibility of CYP2B6, CYP2C9, and CYP2C19 in the test system.
(§5) Mean specific activity values with associated p-values≦0.05 were deemed to be statistically significant.

CYP2C9 [2] = target: T2, CYP2C9 (Homo sapiens, UniProt P11712); conditions: 1 mg/mL HLM, 60 min, with sulfaphenazole; for % Turnover / % inhibition of turnover / Conc.: single replicates
T2 sequence (P11712 whole entry): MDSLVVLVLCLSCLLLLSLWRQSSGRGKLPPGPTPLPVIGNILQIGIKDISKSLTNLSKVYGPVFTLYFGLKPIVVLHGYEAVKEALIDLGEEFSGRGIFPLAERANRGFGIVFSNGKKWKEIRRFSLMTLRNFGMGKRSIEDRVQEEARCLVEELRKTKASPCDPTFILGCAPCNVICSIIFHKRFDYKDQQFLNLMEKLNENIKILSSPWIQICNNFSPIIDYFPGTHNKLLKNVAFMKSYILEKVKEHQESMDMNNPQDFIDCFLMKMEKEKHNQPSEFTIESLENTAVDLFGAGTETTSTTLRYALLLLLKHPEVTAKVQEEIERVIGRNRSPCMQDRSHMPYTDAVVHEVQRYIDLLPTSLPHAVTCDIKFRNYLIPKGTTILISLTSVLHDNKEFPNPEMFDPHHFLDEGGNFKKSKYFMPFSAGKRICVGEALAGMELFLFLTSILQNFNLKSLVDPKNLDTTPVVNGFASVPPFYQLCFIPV
Description: (§9) Human liver microsomes pooled from 15 individuals (male and female) (Pool HMMC-PL020; CellzDirect, Inc., In Vitro Products and Services Division) were used in some experiments of this study.
(§10) % Turnover=100−{[TA(final)]/[mean of TA(0 min)]}×100,
(§11) % Inhibition of Turnover=100{1−([TA(0 min)]−[TA(final-inhibitor)])/([TA(0 min)]−[TA(final-no inhibitor)])}.
(§12) The inhibitors or vehicle control were incubated with the pooled human liver microsomes (1 mg/mL) and NADPH (1 mM) in 0.1 M phosphate buffer, pH 7.4. […] Incubations were conducted in triplicate and terminated by addition of organic solvent. Samples were extracted and analyzed by LC-MS/MS as described above.

CYP2C9 [3] = target: T2, CYP2C9; assay: Inhibition of CYP2C9 activity in pooled human liver microsomes (tolbutamide 150 μM to 4′-methylhydroxytolbutamide); assay type: in vitro ADME; design: host or cells: cryopreserved primary human hepatocytes from three donors
Description: (§6) All other incubations were for 30 minutes.
(§7) Four replicates were performed.
(§8) Two replicates were performed.

CYP2D6 = CYP2D6 (Homo sapiens, UniProt P10635); assay: Inhibition of CYP2D6 activity in pooled human liver microsomes (dextromethorphan 5 μM to dextrorphan); assay type: in vitro ADME
Chain of CYP2D6 (P10635 whole entry): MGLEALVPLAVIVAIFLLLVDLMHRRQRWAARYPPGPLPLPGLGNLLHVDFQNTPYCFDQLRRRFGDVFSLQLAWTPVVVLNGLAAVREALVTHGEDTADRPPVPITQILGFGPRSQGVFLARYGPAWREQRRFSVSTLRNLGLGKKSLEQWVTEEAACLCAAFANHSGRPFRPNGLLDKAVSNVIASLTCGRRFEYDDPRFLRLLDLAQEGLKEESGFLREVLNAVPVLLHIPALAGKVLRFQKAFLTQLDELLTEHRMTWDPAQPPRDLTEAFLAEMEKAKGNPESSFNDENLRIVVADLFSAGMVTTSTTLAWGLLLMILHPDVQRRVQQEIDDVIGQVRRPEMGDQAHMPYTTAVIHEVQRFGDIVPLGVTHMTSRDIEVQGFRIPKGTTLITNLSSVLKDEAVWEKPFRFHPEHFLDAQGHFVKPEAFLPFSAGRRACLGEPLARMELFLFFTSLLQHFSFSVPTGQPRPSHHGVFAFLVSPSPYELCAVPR
Description: as §6, §7, §8

CYP2C19 [4] = target: T1, CYP2C19; assay: Chemical inhibition of metaxalone turnover in human liver microsomes, CYP2C19 inhibitor ticlopidine; conditions: 1 mg/mL HLM, 60 min, with ticlopidine; for % Turnover / % inhibition of turnover / Conc.: single replicates
Description: as §9, §10, §11, §12

CYP2B6 = assay: Induction/inhibition of CYP2B6 activity in cryopreserved human hepatocytes (S-mephenytoin); conditions: human; for Nirvanol formation Adjusted Mean ± SD: 48 h
Excerpt: as §1, §2, §3, §4, §5

CYP2C9 [5] = target: T2, CYP2C9; assay: Induction/inhibition of CYP2C9 activity in cryopreserved human hepatocytes (tolbutamide)
Excerpt: as §1, §2, §3, §4, §5

Cc1cc(C)cc(OCC2CNC(=O)O2)c1 (centres unmarked) [metaxalone, 5-[(3,5-dimethylphenoxy)methyl]-2-oxazolidinone]
Inducer/Inhibitor (CYP2C19 [1]): 0
4′-Hydroxymephenytoin formation Adjusted Individual (CYP2C19 [1]; 0.4 µM): <0.0500 µM
4′-Hydroxymephenytoin formation Adjusted Mean ± SD (CYP2C19 [1]; 0.4 µM): <0.0500 ± 0.000 µM
4′-Hydroxymephenytoin formation Adjusted Individual (CYP2C19 [1]; 0.4 μM): <0.0500 µM
4′-Hydroxymephenytoin formation Adjusted Mean ± SD (CYP2C19 [1]; 0.4 μM): <0.0500 ± 0.000 µM
4′-Hydroxymephenytoin formation Adjusted Individual (CYP2C19 [1]; 4 µM): <0.0500 µM
4′-Hydroxymephenytoin formation Adjusted Mean ± SD (CYP2C19 [1]; 4 µM): <0.0500 ± 0.000 µM
4′-Hydroxymephenytoin formation Adjusted Individual (CYP2C19 [1]; 4 μM): <0.0500 µM
4′-Hydroxymephenytoin formation Adjusted Mean ± SD (CYP2C19 [1]; 4 μM): <0.0500 ± 0.000 µM
4′-Hydroxymephenytoin formation Adjusted Individual (CYP2C19 [1]; 40 µM): <0.0500 µM
4′-Hydroxymephenytoin formation Adjusted Mean ± SD (CYP2C19 [1]; 40 µM): <0.0500 ± 0.000 µM
4′-Hydroxymephenytoin formation Adjusted Individual (CYP2C19 [1]; 40 μM): <0.0500 µM
4′-Hydroxymephenytoin formation Adjusted Mean ± SD (CYP2C19 [1]; 40 μM): <0.0500 ± 0.000 µM
Percent of VC (CYP2C19 [1]; 0.4 µM): 100%
Specific Activity Individual (CYP2C19 [1]; 0.4 µM): <0.446 pmol/min/million cells
Specific Activity Mean ± SD (CYP2C19 [1]; 0.4 µM): <0.446 ± 0.000 pmol/min/million cells
Percent of VC (CYP2C19 [1]; 0.4 μM): 100%
Specific Activity Individual (CYP2C19 [1]; 0.4 μM): <0.446 pmol/min/million cells
Specific Activity Mean ± SD (CYP2C19 [1]; 0.4 μM): <0.446 ± 0.000 pmol/min/million cells
Percent of VC (CYP2C19 [1]; 4 µM): 100%
Specific Activity Individual (CYP2C19 [1]; 4 µM): <0.446 pmol/min/million cells
Specific Activity Mean ± SD (CYP2C19 [1]; 4 µM): <0.446 ± 0.000 pmol/min/million cells
Percent of VC (CYP2C19 [1]; 4 μM): 100%
Specific Activity Individual (CYP2C19 [1]; 4 μM): <0.446 pmol/min/million cells
Specific Activity Mean ± SD (CYP2C19 [1]; 4 μM): <0.446 ± 0.000 pmol/min/million cells
Percent of VC (CYP2C19 [1]; 40 µM): 100%
Specific Activity Individual (CYP2C19 [1]; 40 µM): <0.446 pmol/min/million cells
Specific Activity Mean ± SD (CYP2C19 [1]; 40 µM): <0.446 ± 0.000 pmol/min/million cells
Percent of VC (CYP2C19 [1]; 40 μM): 100%
Specific Activity Individual (CYP2C19 [1]; 40 μM): <0.446 pmol/min/million cells
Specific Activity Mean ± SD (CYP2C19 [1]; 40 μM): <0.446 ± 0.000 pmol/min/million cells
% Turnover Mean (CYP2C9 [2]; 0.75 μM metaxalone): 5.53%
% inhibition of turnover Mean (CYP2C9 [2]; 0.75 μM metaxalone): 81.4%
Mean Conc. (CYP2C9 [2]; 0.75 μM metaxalone): 0.729 µM
% Turnover (CYP2C9 [2]; 0.75 μM metaxalone): 5.4% and 5.6% (2×)
% inhibition of turnover (CYP2C9 [2]; 0.75 μM metaxalone): 81.9% and 81.3%
Conc. (CYP2C9 [2]; 0.75 μM metaxalone): 0.730 µM
% Turnover Mean (CYP2C9 [2]; 7.5 μM metaxalone): 11.6%
% inhibition of turnover Mean (CYP2C9 [2]; 7.5 μM metaxalone): 52.8%
Mean Conc. (CYP2C9 [2]; 7.5 μM metaxalone): 7.52 µM
% Turnover (CYP2C9 [2]; 7.5 μM metaxalone): 10.2% and 12.6%
% inhibition of turnover (CYP2C9 [2]; 7.5 μM metaxalone): 51.0% and 58.5% and 48.8%
Conc. (CYP2C9 [2]; 7.5 μM metaxalone): 7.49 µM and 7.65 µM and 7.44 µM
inhibition of CYP activity at a statistically significant level (CYP2C9 [3]; 0.3-100 μM metaxalone): no tested concentration of metaxalone inhibited activity
Inhibitor (CYP2C9 [3]; CYP isozyme 2C9, summary of studies): 0
Percent of VC (CYP2C9 [3]; metaxalone 0.3 μM): 81.4%
Specific Activity Individual (CYP2C9 [3]; metaxalone 0.3 μM): 36.3 pmol/min/mg protein and 35.8 pmol/min/mg protein and 36.2 pmol/min/mg protein
Specific Activity Mean ± SD (CYP2C9 [3]; metaxalone 0.3 μM): 36.1 ± 0.283 pmol/min/mg protein
Percent of VC (CYP2C9 [3]; metaxalone 1 μM): 81.6%
Specific Activity Individual (CYP2C9 [3]; metaxalone 1 μM): 40.3 pmol/min/mg protein and 37.5 pmol/min/mg protein and 30.6 pmol/min/mg protein
Specific Activity Mean ± SD (CYP2C9 [3]; metaxalone 1 μM): 36.2 ± 4.98 pmol/min/mg protein
Percent of VC (CYP2C9 [3]; metaxalone 3 μM): 81.2%
Specific Activity Individual (CYP2C9 [3]; metaxalone 3 μM): 34.8 pmol/min/mg protein and 34.0 pmol/min/mg protein and 39.1 pmol/min/mg protein
Specific Activity Mean ± SD (CYP2C9 [3]; metaxalone 3 μM): 36.0 ± 2.75 pmol/min/mg protein
Percent of VC (CYP2C9 [3]; metaxalone 30 μM): 91.0%
Specific Activity Individual (CYP2C9 [3]; metaxalone 30 μM): 39.9 pmol/min/mg protein and 38.3 pmol/min/mg protein and 42.8 pmol/min/mg protein
Specific Activity Mean ± SD (CYP2C9 [3]; metaxalone 30 μM): 40.3 ± 2.24 pmol/min/mg protein
Percent of VC (CYP2C9 [3]; metaxalone 100 μM): 87.4%
Specific Activity Individual (CYP2C9 [3]; metaxalone 100 μM): 43.4 pmol/min/mg protein and 36.6 pmol/min/mg protein and 36.3 pmol/min/mg protein
Specific Activity Mean ± SD (CYP2C9 [3]; metaxalone 100 μM): 38.8 ± 4.00 pmol/min/mg protein
inhibition of CYP activity at a statistically significant level (CYP2D6; 0.3-100 μM metaxalone, p≦0.05): inhibited
Inhibitor (CYP2D6; CYP isozyme 2D6, summary of studies): +
Percent of VC (CYP2D6; metaxalone 0.3 μM): 81.3%
Specific Activity Individual (CYP2D6; metaxalone 0.3 μM): 39.5 pmol/min/mg protein and 39.2 pmol/min/mg protein and 40.5 pmol/min/mg protein
Specific Activity Mean ± SD (CYP2D6; metaxalone 0.3 μM): 39.8 ± 0.688 pmol/min/mg protein
Percent of VC (CYP2D6; metaxalone 1 μM): 84.2%
Specific Activity Individual (CYP2D6; metaxalone 1 μM): 42.4 pmol/min/mg protein and 41.3 pmol/min/mg protein
Specific Activity Mean ± SD (CYP2D6; metaxalone 1 μM): 41.2 ± 1.28 pmol/min/mg protein
Percent of VC (CYP2D6; metaxalone 3 μM): 89.3%
Specific Activity Individual (CYP2D6; metaxalone 3 μM): 43.0 pmol/min/mg protein and 44.8 pmol/min/mg protein
Specific Activity Mean ± SD (CYP2D6; metaxalone 3 μM): 43.7 ± 0.940 pmol/min/mg protein
Percent of VC (CYP2D6; metaxalone 30 μM): 85.1%
Specific Activity Individual (CYP2D6; metaxalone 30 μM): 41.4 pmol/min/mg protein and 42.6 pmol/min/mg protein and 40.9 pmol/min/mg protein
Specific Activity Mean ± SD (CYP2D6; metaxalone 30 μM): 41.6 ± 0.893 pmol/min/mg protein
Percent of VC (CYP2D6; metaxalone 100 μM): 85.9%
Specific Activity Individual (CYP2D6; metaxalone 100 μM): 42.6 pmol/min/mg protein and 41.3 pmol/min/mg protein and 42.2 pmol/min/mg protein
Specific Activity Mean ± SD (CYP2D6; metaxalone 100 μM): 42.0 ± 0.680 pmol/min/mg protein
% Turnover Mean (CYP2C19 [4]; 0.75 μM metaxalone): 8.16%
% inhibition of turnover Mean (CYP2C19 [4]; 0.75 μM metaxalone): 72.6%
Mean Conc. (CYP2C19 [4]; 0.75 μM metaxalone): 0.709 µM
% Turnover (CYP2C19 [4]; 0.75 μM metaxalone): 9.6% and 7.5% and 7.4%
% inhibition of turnover (CYP2C19 [4]; 0.75 μM metaxalone): 67.9% and 74.7% and 75.2%
Conc. (CYP2C19 [4]; 0.75 μM metaxalone): 0.698 µM and 0.714 µM and 0.715 µM
% Turnover Mean (CYP2C19 [4]; 7.5 μM metaxalone): 1.71%
% inhibition of turnover Mean (CYP2C19 [4]; 7.5 μM metaxalone): 93.1%
Mean Conc. (CYP2C19 [4]; 7.5 μM metaxalone): 8.37 µM
% Turnover (CYP2C19 [4]; 7.5 μM metaxalone): 5.8% and 11.0% and −11.6%
% inhibition of turnover (CYP2C19 [4]; 7.5 μM metaxalone): 76.5% and 55.5% and 147%
Conc. (CYP2C19 [4]; 7.5 μM metaxalone): 8.02 µM and 7.58 µM and 9.50 µM
Inducer/Inhibitor (CYP2B6): 0
Nirvanol formation Adjusted Mean ± SD (CYP2B6; 0.4 μM): 0.0340 ± 0.000883 µM
Nirvanol formation Adjusted Mean ± SD (CYP2B6; 4 μM): 0.0305 ± 0.00272 µM
Inducer/Inhibitor (CYP2C9 [5]): −
Percent of VC (CYP2C9 [5]; Donor 1, Metaxalone 0.4 μM): 108%
Percent of VC (CYP2C9 [5]; Donor 1, Metaxalone 4 μM): 100%
Percent of VC (CYP2C9 [5]; Donor 1, Metaxalone 40 μM): <73.2%
Percent of VC (CYP2C9 [5]; Donor 2, Metaxalone 4 μM): 92.9%
Percent of VC (CYP2C9 [5]; Donor 2, Metaxalone 40 μM): 60.4%
Percent of VC (CYP2C9 [5]; Donor 3, Metaxalone 0.4 μM): 111%
Percent of VC (CYP2C9 [5]; Donor 3, Metaxalone 40 μM): 78.4%
Specific Activity Mean ± SD (CYP2C9 [5]; Donor 3, Metaxalone 40 μM): 0.127 ± 0.005 pmol/min/million cells
Specific Activity Mean ± SD (CYP2C9 [5]; human, 48 h, 0.4 µM): 0.179 ± 0.0111 pmol/min/million cells
Specific Activity Mean ± SD (CYP2C9 [5]; human, 48 h, 4 µM): 0.167 ± 0.0210 pmol/min/million cells
effect on CYP2C9 activity (CYP2C9 [5]; human, hepatocytes, 48 h, 40 μM): significantly reduced CYP2C9 activity
